Earlier results in patent EP2527351B1, “Lipophosphonoxins, method of their preparation and use” (priority 2011, dated 2012).

Tested on: Mycobacterium tuberculosis strains
Conditions: multidrug-resistant strains, in vitro; cited from earlier work

For caprazamycins [CPZs], the MIC is listed as 3.13 µg/mL.
